Experimental data: paper PMC3495175 (Bioorganic & medicinal chemistry, 2012)

What was measured:
MtMetAP1a = MtMetAP1a (Mycobacterium tuberculosis, UniProt P9WK21); test: MtMetAP1a coupled enzyme assay; type: biochemical; details: for IC50: IC50 (µM), MtMetAP 1a, 200 nM enzyme; for Inhibition of MtMetAP1a (in words): both metalloforms (Co2+, Mn2+)
MtMetAP1c = MtMetAP1c (Mycobacterium tuberculosis, UniProt P9WK19); test: MtMetAP1c coupled enzyme assay; type: biochemical; details: for IC50: IC50 (µM), MtMetAP 1c, 100 nM enzyme
Chain of MtMetAP1c (P9WK19 whole entry): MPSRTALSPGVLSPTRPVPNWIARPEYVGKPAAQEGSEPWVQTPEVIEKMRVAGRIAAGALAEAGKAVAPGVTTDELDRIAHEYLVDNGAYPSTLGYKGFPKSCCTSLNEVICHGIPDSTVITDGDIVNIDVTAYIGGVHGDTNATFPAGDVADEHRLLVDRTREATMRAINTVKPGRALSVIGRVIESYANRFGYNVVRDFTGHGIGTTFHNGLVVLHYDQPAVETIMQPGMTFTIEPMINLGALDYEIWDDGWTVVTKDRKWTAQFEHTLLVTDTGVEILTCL

[1] = Co2+, Co2+ cofactor (10 µM CoCl2)
[2] = Mn2+, Mn2+ cofactor (10 µM MnCl2)

Chain of MtMetAP1a (P9WK21 whole entry): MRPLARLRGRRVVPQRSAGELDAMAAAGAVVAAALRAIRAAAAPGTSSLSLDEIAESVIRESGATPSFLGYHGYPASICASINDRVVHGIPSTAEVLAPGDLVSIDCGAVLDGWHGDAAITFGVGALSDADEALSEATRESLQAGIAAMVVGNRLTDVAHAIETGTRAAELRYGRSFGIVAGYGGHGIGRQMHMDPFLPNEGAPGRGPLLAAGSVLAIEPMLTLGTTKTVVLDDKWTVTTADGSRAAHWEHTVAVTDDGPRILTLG

SMILES	IC50 (MtMetAP1a; [1]) [µM]	IC50 (MtMetAP1a; [2]) [µM]	IC50 (MtMetAP1c; [1]) [µM]	IC50 (MtMetAP1c; [2]) [µM]	Inhibition of MtMetAP1a (in words) (MtMetAP1a)	Inhibition of MtMetAP1c (in words) (MtMetAP1c)
CCCCCCCCC(=O)Nc1nc2c(s1)CCc1cc(OC)ccc1-2 [3r, reference compound]	> 50	> 50	> 50	> 50	–	–
CN(C)/C=N/c1nc2c(s1)CCc1ccccc1-2 [3a]	–	–	–	> 50	–	–
COc1ccc2c(c1)-c1nc(NC=NO)sc1CC2 [4b, N'-hydroxy-N-(8-methoxy-4H,5H-naphtho[1,2-d]thiazol-2-yl)methanimidamide]	–	> 50	–	–	–	–
COc1ccc2c(c1)OCc1sc(N/C=N\O)nc1-2 [4g]	–	–	> 50	> 50	moderate inhibition	did not inhibit
COc1ccc2c(c1)OC(c1ccccc1)c1sc(N/C=N\O)nc1-2 (stereo not shown) [4i]	–	–	> 50	> 50	moderate inhibition	did not inhibit
COc1ccc2c(c1)CCc1sc(NC(C)=O)nc1-2 [3p, reference compound]	> 50	> 50	> 50	> 50	–	–
COc1ccc2c(c1)Cc1sc(N/C=N\O)nc1-2 [4l]	> 50	> 50	> 50	> 50	–	–
O/N=C\Nc1nc2c(s1)CCc1cc3c(cc1-2)OCO3 [4f]	–	> 20	–	–	–	–
O/N=C\Nc1nc2c(s1)CCCc1cc3c(cc1-2)OCO3 [4j]	–	> 50	–	–	–	–
COc1ccc2c(c1)CCc1sc(N)nc1-2 [3o, reference compound]	> 50	> 50	> 50	> 50	–	–
Nc1nc2c(s1)CCc1ccccc1-2 [3n, reference compound]	> 50	> 50	> 50	> 50	–	–
COc1ccc(-c2csc(N/C=N\O)n2)cc1OC [4m]	> 20	> 20	–	–	–	moderate potency
COc1ccc2c(c1)CCc1sc(/N=C/c3ccco3)nc1-2 [3t]	> 50	> 50	> 50	> 50	–	–
O/N=C\Nc1nc2c(s1)COc1cc3c(cc1-2)OCO3 [4h]	–	> 10	–	–	–	–
O/N=C\Nc1nc2c(s1)CCc1ccccc1-2 [4a]	–	> 50	–	> 50	–	–
COc1ccc2c(c1)CCc1sc(NC(=O)[C@H](C)O)nc1-2 [3s, (S)-2-Hydroxy-N-(7-methoxy-4H,5H-naphtho[1,2-d]thiazol-2-yl)propanamide]	> 50	> 50	> 50	> 50	–	–
COc1ccc2c(c1)CCc1sc(N/C=N\O)nc1-2 [4c, N'-hydroxy-N-(7-methoxy-4H,5H-naphtho[1,2-d]thiazol-2-yl)methanimidamide]	–	> 50	–	> 50	–	–
CCCCCCCCC(=O)Nc1nc2c(s1)CCc1ccccc1-2 [3q, reference compound]	> 50	> 50	> 50	> 50	–	–
COc1cc2c(cc1OC)-c1nc(N/C=N\O)sc1CC2 [4e]	–	–	–	> 50	–	–
COc1ccc2c(c1)CCc1sc(/N=C/c3ccccc3O)nc1-2 [3v]	> 50	> 50	> 50	> 50	–	–
COc1ccc2c(c1)CCc1sc(NCc3ccco3)nc1-2 [3u, N-(Furan-2-ylmethyl)-7-methoxy-4H,5H-naphtho[1,2-d]thiazol-2-amine]	> 50	> 50	> 50	> 50	–	–
